The target in the assay is T1, human RNR (histidine tagged human M1 and human M2 proteins) (Homo sapiens, UniProt P23921).
T1 construct: made in house; host or cells: Escherichia coli
T1 sequence (P23921 1-792): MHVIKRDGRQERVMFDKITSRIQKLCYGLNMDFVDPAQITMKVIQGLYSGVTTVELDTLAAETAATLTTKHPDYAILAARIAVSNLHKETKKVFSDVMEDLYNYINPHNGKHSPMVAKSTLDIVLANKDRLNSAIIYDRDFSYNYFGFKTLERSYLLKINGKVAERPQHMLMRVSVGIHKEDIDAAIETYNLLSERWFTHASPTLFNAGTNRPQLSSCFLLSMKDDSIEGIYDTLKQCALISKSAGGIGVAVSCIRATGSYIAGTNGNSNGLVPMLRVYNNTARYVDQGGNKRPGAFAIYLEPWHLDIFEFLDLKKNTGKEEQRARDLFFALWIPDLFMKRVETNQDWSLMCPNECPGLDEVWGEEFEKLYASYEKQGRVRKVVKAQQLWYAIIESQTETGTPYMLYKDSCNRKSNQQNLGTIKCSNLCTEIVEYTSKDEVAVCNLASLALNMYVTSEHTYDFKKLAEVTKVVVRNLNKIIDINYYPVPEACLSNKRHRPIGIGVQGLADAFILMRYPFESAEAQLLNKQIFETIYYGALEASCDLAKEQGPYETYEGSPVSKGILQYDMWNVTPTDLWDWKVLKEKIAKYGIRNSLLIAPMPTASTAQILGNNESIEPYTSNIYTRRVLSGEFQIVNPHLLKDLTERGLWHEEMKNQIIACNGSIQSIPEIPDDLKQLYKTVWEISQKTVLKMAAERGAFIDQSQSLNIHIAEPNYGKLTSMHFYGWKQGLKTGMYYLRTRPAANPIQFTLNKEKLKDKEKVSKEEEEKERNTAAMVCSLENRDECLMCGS
Kind of assay: Human RNR inhibition effect (dCDP formation from CDP). Format: biochemical. To be noted: 10 μM CDP, 37° C. for 30 minutes, read-out: RNR inhibitory activity IC50. In outline: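 His-tagged human M1 (isoform 1) and N-terminal 59-aa-truncated M2 (isoform 2), E. coli-expressed, Ni-purified, preincubated 20 min with compound (1% DMSO). Reaction with 10 μM CDP, 2 mM ATP, 0.24 mM NADPH, 6 mM DTT, 4 mM Mg acetate, 100 mM KCl, 50 mM HEPES pH 7.2, 30 min at 37° C. dCDP formed quantified by reverse-phase HPLC after heat stop.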

Structures are written as SMILES.

One may read the IC50 as the point on the concentration scale where inhibition reaches its midpoint. As to `Cc1ccc(F)c([C@@H](C)[C@H](NS(=O)(=O)c2cc(C(=O)N(C)C)c(Cl)cc2C(N)=O)c2n[nH]c(=O)o2)c1C` [Example 39, 2-chloro-5-(N-((1S,2R)-2-(6-fluoro-2,3-dimethylphenyl)-1-(5-oxo-4,5-dihydro-1,3,4-oxadiazol-2-yl)propyl)sulfamoyl)-N1,N1-dimethyl terephthalamide], the IC50 came to 40 nM.
For the molecule `Cc1ccc(F)c([C@@H](C)[C@H](NS(=O)(=O)c2ccc(C3CC3)cc2C(N)=O)c2n[nH]c(=O)o2)c1C` [Example 16, 5-Cyclopropyl-2-(N-((1S,2R)-2-(6-Fluoro-2,3-dimethylphenyl)-1-(5-oxo-4,5-dihydro-1,3,4-oxadiazol-2-yl)propyl)sulfamoyl)benzamide], the IC50 was 130 nM.
`Cc1cc(F)cc([C@@H](C)[C@H](NS(=O)(=O)c2ccc(Cl)cc2C(N)=O)c2n[nH]c(=O)o2)c1C` [Example 7, 15-chloro-2-(N-((1S,2R)-2-(5-fluoro-2,3-dimethylphenyl)-1-(5-oxo-4,5-dihydro-1,3,4-oxadiazol-2-yl)propyl)sulfamoyl)benzamide]: the IC50 stood at 450 nM.
With `Cc1c(Br)ccc(F)c1[C@@H](C)[C@H](NS(=O)(=O)c1ccc(F)c2c1OCCC2(C)O)c1n[nH]c(=O)o1` (single isomer, unassigned) [Example 227B], the IC50 was 90 nM.
For `Cc1ccc(F)c([C@@H](C)[C@H](NS(=O)(=O)c2ccc(Cl)cc2C(N)=O)c2n[nH]c(=O)o2)c1Cl` [Example 17, 5-chloro-2-(N-((1S)-2-(2-chloro-6-fluoro-3-methylphenyl)-1-(5-oxo-4,5-dihydro-1,3,4-oxadiazol-2-yl)propyl)sulfamoyl)benzamide] the value was 500 nM.
In the case of `CC(=O)OC1(C(F)(F)F)CCOc2c1cccc2S(=O)(=O)N[C@H](c1n[nH]c(=O)o1)[C@H](C)c1c(F)ccc(C)c1C` (stereo partly drawn) [Example 106, 8-(N-((1S,2R)-2-(6-fluoro-2,3-dimethylphenyl)-1-(5-oxo-4,5-dihydro-1,3,4-oxadiazol-2-yl)propyl)sulfamoyl)-4-(tifluoromethyl)chroman-4-ylacetate] it was 270 nM.
In the case of `CC(O)c1cc(S(=O)(=O)N[C@H](c2n[nH]c(=O)o2)[C@H](C)c2cccc3c2CCC3)ccc1Cl` (stereo partly drawn) [Example 231, 4-chloro-N-((1S,2R)-2-(2,3-dihydro-1H-inden-4-yl)-1-(5-oxo-4,5-dihydro-1,3,4-oxadiazol-2-yl)propyl)-3-(1-hydroxyethyl)benzensulfonamide] it was 650 nM; in that of `COc1cc(Cl)ccc1S(=O)(=O)N[C@H](c1n[nH]c(=O)o1)C(O)c1c(F)ccc(C)c1C` (mixture of isomers) [Example 290, 4-chloro-N-((1S)-2-(6-fluoro-2,3-dimethylphenyl)-2-hydroxy-1-(5-oxo-4,5-dihydro-1,3,4-oxadiazol-2-yl)ethyl)-2-methoxybenzenesulfonamide], 840 nM.
For `Cc1ccc(F)c([C@@H](C)[C@H](NS(=O)(=O)c2ccc(Cl)c3c2OCCC3O)c2n[nH]c(=O)o2)c1C` (single isomer, unassigned) [Example 235B], the IC50 came out at 70 nM.
In the case of `C=C(c1c(F)ccc(C)c1C)[C@H](NS(=O)(=O)c1ccc(Cl)cc1OC)c1n[nH]c(=O)o1` [Example 185, (S)-4-chloro-N-(2-(6-fluoro-2,3-dimethylphenyl)-1-(5-oxo-4,5-dihydro-1,3,4-oxadiazol-2-yl)allyl)-2-methoxybenzensulfonamide] it was 600 nM; in that of `COc1cc(Cl)ccc1S(=O)(=O)N[C@H](c1n[nH]c(=O)o1)[C@H](C)c1c(F)ccc(C)c1C` [Example 83, 4-chloro-N-((1S,2R)-2-(6-fluoro-2,3-dimethylphenyl)-1-(5-oxo-4,5-dihydro-1,3,4-oxadiazol-2-yl)propyl)-2-methoxybenzenesulfonamide], 140 nM.
In the case of `COc1cc(Cl)ccc1S(=O)(=O)N[C@H](c1n[nH]c(=O)o1)[C@H](C)c1c(F)ccc(-c2cnn(C)c2)c1C` [Example 306, 4-chloro-N-((1S,2R)-2-(6-fluoro-2-methyl-3-(1-methyl-1H-pyrazol-4-yl)phenyl)-1-(5-oxo-4,5-dihydro-1,3,4-oxadiazol-2-yl)propyl)-2-methoxybenzenesulfonamide] it was 90 nM; in that of `C[C@H](c1cccc2c1Cc1ccccc1-2)[C@H](NS(=O)(=O)c1ccc(Br)cn1)c1n[nH]c(=O)o1` [Example 49, N-((1S,2R)-2-(9H-fluoren-1-yl)-1-(5-oxo-4,5-dihydro-1,3,4-oxadiazol-2-yl)propyl)-5-bromopyridine-2-sulfonamide], 800 nM; in that of `Cc1ccc(F)c([C@@H](C)[C@H](NS(=O)(=O)c2ncc(Cl)cc2C(=O)O)c2n[nH]c(=O)o2)c1C` [Example 213, 5-chloro-2-(N-((1S,2R)-2-(6-fluoro-2,3-dimethylphenyl)-1-(5-oxo-4,5-dihydro-1,3,4-oxadiazol-2-yl)propyl)sulfamoyl)nicotinic acid], 500 nM.
For `Cc1ccc(F)c([C@@H](C)[C@H](NS(=O)(=O)c2ccc(Cl)cc2C#N)c2n[nH]c(=O)o2)c1C` [Example 84, 4-chloro-2-cyano-N-((1S,2R)-2-(6-fluoro-2,3-dimethylphenyl)-1-(5-oxo-4,5-dihydro-1,3,4-oxadiazol-2-yl)propyl)benzenesulfonamide] the value was 360 nM.
In the case of `Cc1ccc(F)c([C@@H](C)[C@H](NS(=O)(=O)c2cc(C(=O)N3CCOCC3)ccc2C(N)=O)c2n[nH]c(=O)o2)c1C` [Example 36, 2-(N-((1S,2R)-2-(6-fluoro-2,3-dimethylphenyl)-1-(5-oxo-4,5-dihydro-1,3,4-oxadiazol-2-yl)propyl)sulfamoyl)-4-(morpholine-4-carbonyl)benzamide], the IC50 came out at 110 nM.
`COC(=O)c1cc(Cl)ccc1S(=O)(=O)N[C@H](c1n[nH]c(=O)o1)[C@H](C)c1c(F)ccc(C)c1C` [Example 103, methyl 5-chloro-2-(N-((1S,2R)-2-(6-fluoro-2,3-dimethylphenyl)-1-(5-oxo-4,5-dihydro-1,3,4-oxadiazol-2-yl)propyl)sulfamoyl)benzoate]: the IC50 stood at 410 nM.
As to `COc1cc(Cl)ccc1S(=O)(=O)N[C@H](c1n[nH]c(=O)o1)[C@H](C)c1c(F)ccc2ccccc12` [Example 76, 4-chloro-N-((1S,2R)-2-(2-fluoronaphthalen-1-yl)-1-(5-oxo-4,5-dihydro-1,3,4-oxadiazol-2-yl)propyl)-2-methoxybenzenesulfonamide], the IC50 is 200 nM.
For `C[C@H](c1cccc2c1CCC2)[C@H](NS(=O)(=O)c1ccc(F)c(C(C)(C)O)c1F)c1n[nH]c(=O)o1` [Example 189, N-((1S,2R)-2-(2,3-dihydro-1H-inden-4-yl)-1-(5-oxo-4,5-dihydro-1,3,4-oxadiazol-2-yl)propyl)-2,4-difluoro-3-(2-hydroxypropan-2-yl)benzenesulfonamide] the value was 550 nM; for `Cc1cccc([C@@H](C)[C@H](NS(=O)(=O)c2ccc(Cl)c3c2OCC=C3)c2n[nH]c(=O)o2)c1C` [Example 295, 5-chloro-N-((1S,2R)-2-(2,3-dimethylphenyl)-1-(5-oxo-4,5-dihydro-1,3,4-oxadiazol-2-yl)propyl)-2H-chromene-8-sulfonamide], 790 nM; for `Cc1c(Br)ccc(F)c1[C@@H](C)[C@H](NS(=O)(=O)c1ccc(Cl)c2c1OCCC2=O)c1n[nH]c(=O)o1` [Example 124, N-((1S,2R)-2-(3-bromo-6-fluoro-2-methylphenyl)-1-(5-oxo-4,5-dihydro-1,3,4-oxadiazol-2-yl)propyl)-5-chloro-4-oxochroman-8-sulfonamide], 90 nM.
In the case of `CCc1cccc([C@@H](C)[C@H](NS(=O)(=O)c2ccc(Cl)cc2OC)c2n[nH]c(=O)o2)c1C` [Example 86, 4-chloro-N-((1S,2R)-2-(3-ethyl-2-methylphenyl)-1-(5-oxo-4,5-dihydro-1,3,4-oxadiazol-2-yl)propyl)-2-methoxybenzenesulfonamide] it was 400 nM; in that of `Cc1ccc(F)c([C@@H](C)[C@H](NS(=O)(=O)c2ccc3c(c2)C(C)(O)CCC3)c2n[nH]c(=O)o2)c1C` (stereo partly drawn) [Example 194, N-((1S,2R)-2-(6-fluoro-2,3-dimethylphenyl)-1-(5-oxo-4,5-dihydro-1,3,4-oxadiazol-2-yl)propyl)-8-hydroxy-8-methyl-5,6,7,8-tetrahydronaphthalene-2-sulfonamide], 360 nM.
In the case of `Cc1ccc(F)c([C@@H](C)[C@H](NS(=O)(=O)c2cc(C(C)(C)O)c(F)cc2C(N)=O)c2n[nH]c(=O)o2)c1C` [Example 196, 5-fluoro-2-(N-((1S,2R)-2-(6-fluoro-2,3-dimethylphenyl)-1-(5-oxo-4,5-dihydro-1,3,4-oxadiazol-2-yl)propyl)sulfamoyl)-4-(2-hydroxypropan-2-yl)benzamide] it was 80 nM.

The values above are taken from patent publication US20200405697A1, “Antitumor Agent” (Taiho Pharmaceutical Co., Ltd, priority 2017, published 2020).
